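Five compound concentrations were applied to cells in 96-well plates for 48 hours; endpoints were derived by simple linear interpolation of the resulting dose-response curve. GI50: concentration for 50% inhibition of growth.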 Activity calls are given as the source filed them. Rule as the data show it: active = GI50 up to about 1.1 µM and inactive = higher.
Columns and labels:
Assay in all cases: NCI anticancer screen, dose series, 48 h
EKVX = tested on: EKVX
OVCAR-3 = tested on: OVCAR-3
BT-549 = tested on: BT-549
MCF7 = tested on: MCF7
NCI-H23 = tested on: NCI-H23
U-251 = tested on: U-251
HOP-62 = tested on: HOP-62
K562 = tested on: K562
OVCAR-5 = tested on: OVCAR-5
T47D = tested on: T47D
CCRF-CEM = tested on: CCRF-CEM
SK-MEL-28 = tested on: SK-MEL-28
PC-3 = tested on: PC-3
HCT-116 = tested on: HCT-116
SN12C = tested on: SN12C
LOX IMVI = tested on: LOX IMVI
HT-29 = tested on: HT-29
SF-295 = tested on: SF-295
HL-60 = tested on: HL-60
HOP-92 = tested on: HOP-92
IGROV-1 = tested on: IGROV-1
UACC-62 = tested on: UACC-62
TK-10 = tested on: TK-10
CAKI-1 = tested on: CAKI-1
Malme-3M = tested on: Malme-3M
SK-MEL-2 = tested on: SK-MEL-2
MDA-N = tested on: MDA-N
DU-145 = tested on: DU-145
SK-MEL-5 = tested on: SK-MEL-5
HCC 2998 = tested on: HCC 2998
SF-268 = tested on: SF-268
A498 = tested on: A498
A549 = tested on: A549
SK-OV-3 = tested on: SK-OV-3
NCI-H460 = tested on: NCI-H460
NCI-H226 = tested on: NCI-H226
RPMI-8226 = tested on: RPMI-8226
HCT-15 = tested on: HCT-15
SNB-75 = tested on: SNB-75
Hs-578T = tested on: Hs-578T
SF-539 = tested on: SF-539
SW-620 = tested on: SW-620
MOLT-4 = tested on: MOLT-4
NCI/ADR-RES = tested on: NCI/ADR-RES
SNB-19 = tested on: SNB-19
COLO 205 = tested on: COLO 205
MDA-MB-435 = tested on: MDA-MB-435
SR = tested on: SR
OVCAR-4 = tested on: OVCAR-4
KM12 = tested on: KM12
OVCAR-8 = tested on: OVCAR-8
UACC-257 = tested on: UACC-257
MDA-MB-231 = tested on: MDA-MB-231
M14 = tested on: M14
ACHN = tested on: ACHN
UO-31 = tested on: UO-31
786-0 = tested on: 786-0
RXF 393 = tested on: RXF 393
NCI-H522 = tested on: NCI-H522

CCCCn1c2c(n(CCCC)c1=S)-c1c(n(CCCC)c(=S)n1CCCC)SSc1c(n(CCCC)c(=S)n1CCCC)-c1c(n(CCCC)c(=S)n1CCCC)SSc1c(n(CCCC)c(=S)n1CCCC)-c1c(n(CCCC)c(=S)n1CCCC)SS2
GI50 (EKVX): 5.37 µM (inactive)
GI50 (OVCAR-3): 1.87 µM (inactive)
GI50 (BT-549): 3.55 µM (inactive)
GI50 (MCF7): 12.8 µM (inactive)
GI50 (NCI-H23): 16.3 µM (inactive)
GI50 (U-251): 2.15 µM (inactive)
GI50 (HOP-62): 15.2 µM (inactive)
GI50 (K562): 2.03 µM (inactive)
GI50 (OVCAR-5): 9.12 µM (inactive)
GI50 (T47D): 1.5 µM (inactive)
GI50 (CCRF-CEM): 1.19 µM (inactive)
GI50 (SK-MEL-28): 13.6 µM (inactive)
GI50 (PC-3): 2.04 µM (inactive)
GI50 (HCT-116): 4.72 µM (inactive)
GI50 (SN12C): 2.8 µM (inactive)
GI50 (LOX IMVI): 4 µM (inactive)
GI50 (HT-29): 11.6 µM (inactive)
GI50 (SF-295): 10.4 µM (inactive)
GI50 (HL-60): 1.75 µM (inactive)
GI50 (HOP-92): 1.65 µM (inactive)
GI50 (IGROV-1): 2.43 µM (inactive)
GI50 (UACC-62): 3.37 µM (inactive)
GI50 (TK-10): > 30.2 µM (inactive)
GI50 (CAKI-1): 10.2 µM (inactive)
GI50 (Malme-3M): 1.57 µM (inactive)
GI50 (SK-MEL-2): 10.7 µM (inactive)
GI50 (MDA-N): 7.41 µM (inactive)
GI50 (DU-145): 29.8 µM (inactive)
GI50 (SK-MEL-5): 12 µM (inactive)
GI50 (HCC 2998): 12.6 µM (inactive)
GI50 (SF-268): 5.24 µM (inactive)
GI50 (A498): > 50 µM (inactive)
GI50 (A549): > 50 µM (inactive)
GI50 (SK-OV-3): > 29.2 µM (inactive)
GI50 (NCI-H460): > 31 µM (inactive)
GI50 (NCI-H226): 10 µM (inactive)
GI50 (RPMI-8226): 1.99 µM (inactive)
GI50 (HCT-15): 7.64 µM
GI50 (SNB-75): 10.1 µM (inactive)
GI50 (Hs-578T): 3.25 µM (inactive)
GI50 (SF-539): 4.31 µM (inactive)
GI50 (SW-620): 1.69 µM (inactive)
GI50 (MOLT-4): 2.32 µM (inactive)
GI50 (NCI/ADR-RES): > 50 µM (inactive)
GI50 (SNB-19): 11.4 µM (inactive)
GI50 (COLO 205): 2.64 µM (inactive)
GI50 (MDA-MB-435): 11.3 µM (inactive)
GI50 (SR): 1.88 µM (inactive)
GI50 (OVCAR-4): 1.73 µM (inactive)
GI50 (KM12): 19.4 µM (inactive)
GI50 (OVCAR-8): 1.77 µM (inactive)
GI50 (UACC-257): 2.98 µM (inactive)
GI50 (MDA-MB-231): 2.24 µM (inactive)
GI50 (M14): 13.4 µM (inactive)
GI50 (ACHN): 2.36 µM (inactive)
GI50 (UO-31): 6.47 µM (inactive)
GI50 (786-0): 3.56 µM (inactive)
GI50 (RXF 393): 2.72 µM (inactive)
GI50 (NCI-H522): 0.78 µM (active)
